In US20250144067A1, “PERSONALIZED STARVATION THERAPY FOR CANCER” (Faeth Therapeutics, Inc., priority 2021, published 2025):
Structures can show the parent of a compound that is named as a salt.

Assays:
[1] = system: NCI-H292 lung cancer cells; experiment: FDA drug screening, complete media vs cholesterol-free media without statin (TABLE 1); type: cell-based, human; conditions: for Difference: about 0 neutral
[2] = system: NCI-H292 lung cancer cells; experiment: FDA drug screening, complete media vs cholesterol-free media with simvastatin (TABLE 2); type: cell-based, human; conditions: for Cholesterol-free media + simvastatin (0.04 μM) / Complete Media: NCI-H292 cells; for Difference: >0 enhanced anti-cancer activity, about 0 neutral, <0 antagonist
[3] = Complete minus Cholesterol-free, >0 enhanced anti-cancer activity, <0 antagonist
[4] = NCI-H292 cells, cholesterol-free media without statin
[5] = drug in cholesterol-free media with simvastatin 0.04 μM
[6] = complete media vs cholesterol-free media + simvastatin (0.04 μM)
[7] = Complete minus Cholesterol-free, greater than 0 enhanced anti-cancer activity, below 0 antagonists
[8] = NCI-H292 cells in cholesterol-free media without statin
[9] = NCI-H292 cells in complete media
[10] = Complete minus Cholesterol-free, greater than 0 enhanced anti-cancer activity, below 0 antagonist
[11] = NCI-H292 cells, FDA drug library screen, cholesterol-free media without statin
[12] = NCI-H292 cells, FDA drug library screen, complete media
[13] = FDA library drug in cholesterol-free media with simvastatin 0.04 μM
[14] = FDA library drug in complete media
[15] = NCI-H292 cells, cholesterol-free media without statin, FDA drug library screen
[16] = NCI-H292 cells, complete media, FDA drug library screen
[17] = complete vs cholesterol-free media, >0 enhanced anti-cancer activity, <0 antagonist
[18] = cholesterol-free media with simvastatin 0.04 μM, cell growth value in FDA drug screen
[19] = complete media, cell growth value in FDA drug screen
[20] = complete media minus cholesterol-free media + simvastatin
[21] = complete vs cholesterol-free media, greater than 0 enhanced anti-cancer activity, below 0 antagonists
[22] = FDA drug library screen, cholesterol-free media with simvastatin 0.04 μM
[23] = FDA drug library screen, complete media

Row | SMILES | Difference [1, 3] | Cholesterol-free [1, 4] | Complete ([1]; NCI-H292 cells, complete media) | Difference [2, 6] | Cholesterol-free [1, 15] | Complete [1, 16] | Cholesterol-free media + simvastatin (0.04 μM) [2, 22] | Complete Media [2, 23] | further results
1 | CO[C@@]1(NC(=O)C2SC(=C(C(N)=O)C(=O)O)S2)C(=O)N2C(C(=O)O)=C(CSc3nnnn3C)CS[C@@H]21 (some centres unmarked) [Cefotetan] | −0.26 | 1.196 | 0.9309 | −0.17 | – | – | – | – | Cholesterol-free media + simvastatin (0.04 μM) [2, 5]: 1.2; Complete Media ([2]; drug in complete media): 1.027
2 | CO[C@@]1(NC(=O)Cc2cccs2)C(=O)N2C(C(=O)O)=C(COC(N)=O)CS[C@@H]21 [Cefoxitin (sodium)] | – | – | – | – | – | – | – | – | Difference [1, 7]: −0.48; Cholesterol-free [1, 8]: 1.299; Complete [1, 9]: 0.8161; Cholesterol-free media + simvastatin (0.04 μM) ([2]; cholesterol-free media with simvastatin 0.04 μM, FDA drug library screen (TABLE 2)): 0.9202; Complete Media ([2]; complete media, FDA drug library screen (TABLE 2)): 0.8818; Difference ([2]; complete media minus cholesterol-free media + simvastatin (0.04 μM)): −0.04
3 | CO[C@@]1(NC(=O)Cc2cccs2)C(=O)N2C(C(=O)O)=C(COC(N)=O)CS[C@@H]21 [Cefoxitin] | – | – | – | −0.34 | – | – | – | – | Difference [1, 10]: −0.13; Cholesterol-free [1, 11]: 0.8861; Complete [1, 12]: 0.755; Cholesterol-free media + simvastatin (0.04 μM) [2, 13]: 1.841; Complete Media [2, 14]: 1.5
4 | CO/N=C(\C(=O)N[C@@H]1C(=O)N2C(C(=O)[O-])=C(C[n+]3ccn4ncccc43)CS[C@H]12)c1nsc(N)n1 [Cefozopran (hydrochloride)] | −0.04 | – | – | −0.35 | 1.014 | 0.9759 | – | – | Cholesterol-free media + simvastatin (0.04 μM) [2, 13]: 1.89; Complete Media [2, 14]: 1.537
5 | COCC1=C(C(=O)OC(C)OC(=O)OC(C)C)N2C(=O)[C@@H](NC(=O)/C(=N\OC)c3csc(N)n3)[C@H]2SC1 (some centres unmarked) [Cefpodoxime Proxetil] | – | – | – | – | 1.085 | 1.311 | – | – | Difference [1, 17]: 0.23; Cholesterol-free media + simvastatin (0.04 μM) [2, 18]: 1.112; Complete Media [2, 19]: 1.162; Difference [2, 20]: 0.05
6 | C/C=C/C1=C(C(=O)O)N2C(=O)[C@@H](NC(=O)[C@H](N)c3ccc(O)cc3)[C@H]2SC1.O [Cefprozil (monohydrate)] | – | 1.442 | 1.109 | – | – | – | 0.9773 | 1.216 | Difference [1, 21]: −0.33; Difference [2, 20]: 0.24
7 | NC(=O)c1cc[n+](CC2=C(C(=O)O)N3C(=O)[C@@H](NC(=O)[C@@H](c4ccccc4)S(=O)(=O)[O-])[C@H]3SC2)cc1 [Cefsulodin (sodium)] | – | 1.045 | 0.6569 | −0.08 | – | – | 1.191 | 1.113 | Difference [1, 21]: −0.39
8 | CCO/N=C(\C(=O)N[C@@H]1C(=O)N2C(C(=O)[O-])=C(Sc3nc(-c4cc[n+](C)cc4)cs3)CS[C@H]12)c1nsc(NP(=O)(O)O)n1 [Ceftaroline fosamil] | – | – | – | −0.10 | – | – | 1.027 | 0.9313 | Difference [1, 7]: −0.71; Cholesterol-free [1, 8]: 1.53; Complete [1, 9]: 0.8244
9 | CC(C)(O/N=C(\C(=O)N[C@@H]1C(=O)N2C(C(=O)[O-])=C(C[n+]3ccccc3)CS[C@H]12)c1csc(N)n1)C(=O)O [Ceftazidime] | −0.05 | – | – | −0.24 | 0.9478 | 0.8943 | – | – | Cholesterol-free media + simvastatin (0.04 μM) [2, 5]: 1.391
10 | O=C(Cn1cnnn1)N[C@@H]1C(=O)N2C(C(=O)O)=C(CSc3nncs3)CS[C@H]12 [Ceftezole (sodium)] | – | – | – | – | – | – | – | – | Difference [1, 10]: −0.11; Cholesterol-free [1, 11]: 1.089; Complete [1, 12]: 0.9806; Cholesterol-free media + simvastatin (0.04 μM) [2, 18]: 1.052; Complete Media [2, 19]: 1.1; Difference [2, 20]: 0.05
11 | Nc1nc(/C(=C/CC(=O)O)C(=O)N[C@@H]2C(=O)N3C(C(=O)O)=CCS[C@H]23)cs1 [Ceftibuten (dihydrate)] | – | – | – | −0.16 | 0.6461 | 1.242 | 1.353 | 1.195 | Difference [1, 17]: 0.60
12 | CO/N=C(\C(=O)N[C@@H]1C(=O)N2C(C(=O)O)=CCS[C@H]12)c1csc(N)n1 [Ceftizoxime] | 0.03 | – | – | −0.18 | 1.031 | 1.057 | – | – | Cholesterol-free media + simvastatin (0.04 μM) [2, 5]: 1.55; Complete Media ([2]; drug in complete media): 1.371
13 | CO/N=C(\C(=O)N[C@@H]1C(=O)N2C(C(=O)[O-])=C(COC(N)=O)CS[C@H]12)c1ccco1.[Na+] [Cefuroxime (sodium)] | −0.19 | 1.146 | 0.9534 | −0.09 | – | – | 1.129 | 1.035 | –
